# Values of other authors, collected in PubChem BioAssay AID1259409 (Chemical Carcinogenesis Research Information System (CCRIS), 2018).
# Test system: rodent chemically induced tumor inhibition, incidence and multiplicity
# Test: CCRIS tumor inhibitor studies
# Conditions: Carcinogen: OCHRATOXIN A, 303-47-9, Route [Inhibitor]: ORAL, Species: RAT, Dose [Carcinogen]: 0.4 MG/KG BW 3X/WK FOR LIFETIME, Promoter: NONE
structure (smiles),measurement,setting,value
O=S(=O)(O)CCS,outcome,"Dose [Inhibitor]: 1 G/L IN DRINKING WATER FOR LIFETIME (STUDY DURATION: LIFETIME), Strain/Sex: DA/FEMALE, Target Tissue: Type of Lesion: URETHRA: TRANSITIONAL CELL CARCINOMA","0/40 (0%), 0/40 (0%), 0%, not significant"
same,outcome,"Dose [Inhibitor]: 1 G/L IN DRINKING WATER FOR LIFETIME (STUDY DURATION: LIFETIME), Strain/Sex: DA/FEMALE, Target Tissue: Type of Lesion: URINARY BLADDER: TRANSITIONAL CELL CARCINOMA","0/40 (0%), 0/40 (0%), 0%, not significant"
same,"tumour outcome (control, treated, inhibition, significance)","Dose [Inhibitor]: 1 G/L IN DRINKING WATER FOR LIFETIME (STUDY DURATION: LIFETIME), Strain/Sex: DA/MALE, Target Tissue: Type of Lesion: KIDNEY: TUBULAR CELL ADENOMA","1/20 (5%), 0/20 (0%), 100%, not significant"
same,"tumour outcome (control, treated, inhibition, significance)","Dose [Inhibitor]: 1 G/L IN DRINKING WATER FOR LIFETIME (STUDY DURATION: LIFETIME), Strain/Sex: DA/MALE, Target Tissue: Type of Lesion: KIDNEY: TUBULAR CELL CARCINOMA","6/20 (30%), 2/20 (40%), -33%, not significant"
same,outcome,"Dose [Inhibitor]: 1 G/L IN DRINKING WATER FOR LIFETIME (STUDY DURATION: LIFETIME), Strain/Sex: DA/MALE, Target Tissue: Type of Lesion: URETHRA: TRANSITIONAL CELL CARCINOMA","0/20 (0%), 0/20 (0%), 0%, not significant"
same,outcome,"Dose [Inhibitor]: 1 G/L IN DRINKING WATER FOR LIFETIME (STUDY DURATION: LIFETIME), Strain/Sex: DA/MALE, Target Tissue: Type of Lesion: URINARY BLADDER: TRANSITIONAL CELL PAPILLOMA","0/20 (0%), 0/20 (0%), 0%, not significant"
same,outcome,"Dose [Inhibitor]: 1 G/L IN DRINKING WATER FOR LIFETIME (STUDY DURATION: LIFETIME), Strain/Sex: LEWIS/FEMALE, Target Tissue: Type of Lesion: KIDNEY: TUBULAR CELL ADENOMA","0/20 (0%), 0/20 (0%), 0%, not significant"
same,outcome,"Dose [Inhibitor]: 1 G/L IN DRINKING WATER FOR LIFETIME (STUDY DURATION: LIFETIME), Strain/Sex: LEWIS/FEMALE, Target Tissue: Type of Lesion: URETHRA: TRANSITIONAL CELL CARCINOMA","0/20 (0%), 0/20 (0%), 0%, not significant"
same,outcome,"Dose [Inhibitor]: 1 G/L IN DRINKING WATER FOR LIFETIME (STUDY DURATION: LIFETIME), Strain/Sex: LEWIS/MALE, Target Tissue: Type of Lesion: KIDNEY: TUBULAR CELL ADENOMA","0/20 (0%), 0/20 (0%), 0%, not significant"
same,"tumour outcome (control, treated, inhibition, significance)","Dose [Inhibitor]: 1 G/L IN DRINKING WATER FOR LIFETIME (STUDY DURATION: LIFETIME), Strain/Sex: LEWIS/MALE, Target Tissue: Type of Lesion: KIDNEY: TUBULAR CELL CARCINOMA","2/20 (10%), 1/20 (5%), 50%, not significant"
same,outcome,"Dose [Inhibitor]: 1 G/L IN DRINKING WATER FOR LIFETIME (STUDY DURATION: LIFETIME), Strain/Sex: LEWIS/MALE, Target Tissue: Type of Lesion: URETHRA: TRANSITIONAL CELL CARCINOMA","0/20 (0%), 0/20 (0%), 0%, not significant"
same,outcome,"Dose [Inhibitor]: 1 G/L IN DRINKING WATER FOR LIFETIME (STUDY DURATION: LIFETIME), Strain/Sex: LEWIS/MALE, Target Tissue: Type of Lesion: URINARY BLADDER: TRANSITIONAL CELL CARCINOMA","0/20 (0%), 0/20 (0%), 0%, not significant"
same,outcome,"Dose [Inhibitor]: 1 G/L IN DRINKING WATER FOR LIFETIME (STUDY DURATION: LIFETIME), Strain/Sex: LEWIS/MALE, Target Tissue: Type of Lesion: URINARY BLADDER: TRANSITIONAL CELL PAPILLOMA","0/20 (0%), 0/20 (0%), 0%, not significant"
same,outcome,"Dose [Inhibitor]: 1 G/LITER IN DRINKING WATER FOR LIFETIME (STUDY DURATION: LIFETIME), Strain/Sex: DA/FEMALE, Target Tissue: Type of Lesion: KIDNEY: TUBULAR CELL ADENOMA","0/40 (0%), 0/40 (0%), 0%, not significant"
same,outcome,"Dose [Inhibitor]: 1 G/LITER IN DRINKING WATER FOR LIFETIME (STUDY DURATION: LIFETIME), Strain/Sex: DA/FEMALE, Target Tissue: Type of Lesion: KIDNEY: TUBULAR CELL CARCINOMA","0/40 (0%), 0/40 (0%), 0%, not significant"
